Results from patent US8088791B2, “Antibacterial agents” (Biots Scientific Management Pty Ltd, priority 2006, dated 2012).
In brackets after ≈: the same amount, converted by molar mass. Where two headings read alike, the source gives them in different places.

Key:
Staphylococcus aureus = experiment: mouse Staphylococcus aureus septicaemia model of infection; format: in vivo; settings: survival at day 7 of infected mice; single intraperitoneal dose of 100 mg/kg at 1 hour after intraperitoneal inoculation with a lethal dose of Staphylococcus aureus
Experimental: Some of the Examples were also tested for activity in a mouse Staphylococcus aureus septicaemia model of infection.

[1] = test system: various bacterial species; experiment: Minimum Inhibitory Concentration (MIC) testing, broth microdilution, other bacterial species; format: cell-based
Experimental: Compounds of this invention were tested for antimicrobial activity by susceptibility testing in liquid media. MICs for compounds against each strain were determined by a broth microdilution method according to the National Committee for Clinical Laboratory Standards (NCCLS) guidelines. (NCCLS. 2000. Methods for dilution antimicrobial susceptibility tests for bacteria that grow aerobically—fifth edition. Approved standard M7-A5. NCCLS, Wayne, Pa.)
Briefly, test compounds are prepared in 100 μl of 1.6% DMSO solution in multiwell plates. Several bacterial colonies from a freshly streaked plate are transferred to an appropriate rich broth, such as Mueller Hinton. The cell suspension is adjusted to an optical density of 0.09 and further diluted 1:100 with warm 2× broth. This cell suspension is dispensed into the wells containing compound solution so that the final volume is 200 μl. The plates are incubated overnight (16-20 hours) at 37° C. and turbidity is scored by eye and quantified spectrophotometrically. The MIC is defined as the lowest concentration inhibiting visible growth.
Some of the Examples were also tested for activity against other bacterial species. […] Activities were again scored as ‘A’ if the MIC was ≦8 micrograms/ml, ‘B’ if the MIC was 16 to 64 micrograms/ml and ‘C’ if the MIC was greater than 64 micrograms/ml.

[2] = test system: Staphylococcus aureus ATCC29213; experiment: Minimum Inhibitory Concentration (MIC) testing, broth microdilution, Staphylococcus aureus; format: cell-based; settings: Staphylococcus aureus ATCC29213; read-out: Staphylococcus aureus MICs Activity
Summary of the method: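 Broth microdilution per NCCLS M7-A5 in Mueller Hinton broth, with compound in 1.6% DMSO and inoculum at OD 0.09 diluted 1:100. Plates incubated 16–20 h at 37°C. MIC is the lowest concentration with no visible growth; scored A ≤8, B 16–64, C >64 μg/ml.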

Bacillus subtilis 168CA = experiment: Minimum Inhibitory Concentration (MIC) testing, broth microdilution, Bacillus subtilis; format: cell-based; settings: Bacillus subtilis 168CA; read-out: Bacillus subtilis MICs Activity
Summary of the method: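 Broth microdilution followed NCCLS M7-A5, in rich broth such as Mueller Hinton, inoculum at OD 0.09 diluted 1:100, compounds in 1.6% DMSO before inoculum. After 16–20 h at 37 °C, MIC was the lowest concentration without visible growth. Score A: ≦8 μg/ml, B: 16–64 μg/ml, C: >64 μg/ml.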

[3] = Bacillus cereus, ATCC14579, read-out: MIC Activity Bacillus cereus ATCC 14579
[4] = Staphylococcus epidermidis, ATCC12228, read-out: MIC Activity Staphylococcus epidermidis ATCC 12228
[5] = Staphylococcus haemolyticus, ATCC29970, read-out: MIC Activity Staphylococcus haemolyticus ATCC 29970
[6] = Staphylococcus saprophyticus, ATCC15305, read-out: MIC Activity Staphylococcus saprophyticus ATCC 15305

MIC [2]	MIC (Bacillus subtilis 168CA)	melting point	SMILES	Percent survival (Staphylococcus aureus)	MIC [1, 3]	MIC [1, 4]	MIC [1, 5]	MIC [1, 6]
16 to 64 µg/mL (≈ 50.7 to 203 µM)	< 8 µg/mL	53 to 55 °C	CCCCOC(=O)CCCOc1ccc(F)c(C(N)=O)c1F [Example 181, Butyl 4-[3-(aminocarbonyl)-2,4-difluorophenoxy]butanoate]	–	–	–	–	–
16 to 64 µg/mL (≈ 50.9 to 204 µM)	< 8 µg/mL	216 to 218 °C	NC(=O)c1c(F)ccc(OCc2ccc3ccccc3n2)c1F [Example 200, 2,6-Difluoro-3-(2-quinolinylmethoxy)benzenecarboxamide]	–	–	–	–	–
16 to 64 µg/mL (≈ 50.1 to 200 µM)	< 8 µg/mL	146 to 148 °C	NC(=O)c1c(F)ccc(OCc2ccc3sccc3c2)c1F [Example 201, 3-(1-Benzothiophen-5-ylmethoxy)-2,6-difluorobenzenecarboxamide]	–	–	–	–	–
< 8 µg/mL	< 8 µg/mL	150 to 152 °C	NC(=O)c1c(F)ccc(OCc2cc3cc(C(F)(F)F)ccc3s2)c1F [Example 208, 2,6-Difluoro-3-[5-(trifluoromethyl)-1-benzothiophen-2-yl]methoxybenzenecarboxamide]	–	< 8 µg/mL	–	–	< 8 µg/mL
< 8 µg/mL	< 8 µg/mL	220 to 222 °C	NC(=O)c1ccnc(OCc2nc3cc(Cl)ccc3s2)c1 [Example 222, 2-[(5-Chloro-1,3-benzothiazol-2-yl)methoxy]isonicotinamide]	–	–	–	–	–
< 8 µg/mL	< 8 µg/mL	184 to 186 °C	CCc1cccc2sc(COc3ccc(F)c(C(N)=O)c3F)nc12 [Example 223, 3-[(4-Ethyl-1,3-benzothiazol-2-yl)methoxy]-2,6-difluorobenzenecarboxamide]	–	–	–	–	–
> 64 µg/mL	16 to 64 µg/mL (≈ 45.7 to 183 µM)	190 to 192 °C	COc1ccc2nc(COc3ccc(F)c(C(N)=O)c3F)sc2c1 [Example 224, 2,6-Difluoro-3-[(6-methoxy-1,3-benzothiazol-2-yl)methoxy]benzenecarboxamide]	–	–	–	–	–
> 64 µg/mL	> 64 µg/mL	122 to 123 °C	N#CCOc1ccc(F)c(C(N)=O)c1F [Example 225, 3-(Cyanomethoxy)-2,6-difluorobenzenecarboxamide]	–	–	–	–	–
< 8 µg/mL	< 8 µg/mL	190 to 191 °C	NC(=O)c1c(F)ccc(OCc2nc3ccc(Cl)cc3s2)c1F [Example 227, 3-[(6-Chloro-1,3-benzothiazol-2-yl)methoxy]-2,6-difluorobenzenecarboxamide]	–	–	–	–	–
16 to 64 µg/mL (≈ 47.9 to 191 µM)	< 8 µg/mL	201 to 202 °C	Cc1cccc2sc(COc3ccc(F)c(C(N)=O)c3F)nc12 [Example 228, 2,6-Difluoro-3-[(4-methyl-1,3-benzothiazol-2-yl)methoxy]benzenecarboxamide]	–	–	–	–	–
< 8 µg/mL	< 8 µg/mL	174 to 175 °C	NC(=O)c1c(F)ccc(OCc2nc3ccc(OC(F)(F)F)cc3s2)c1F [Example 230, 2,6-Difluoro-3-[6-(trifluoromethoxy)-1,3-benzothiazol-2-yl]methoxybenzenecarboxamide]	–	–	–	–	–
< 8 µg/mL	< 8 µg/mL	244 to 246 °C	CCCc1ccc2nc(COc3ccc(F)c(C(N)=O)c3F)sc2c1 [Example 231, 2,6-Difluoro-3-[(6-propyl-1,3-benzothiazol-2-yl)methoxy]benzenecarboxamide]	–	–	–	–	–
< 8 µg/mL	16 to 64 µg/mL (≈ 40.3 to 161 µM)	255 to 258 °C	NC(=O)c1c(F)ccc(OCc2nc3cc(-c4ccncc4)ccc3s2)c1F [Example 232, 2,6-Difluoro-3-[5-(4-pyridinyl)-1,3-benzothiazol-2-yl]methoxybenzenecarboxamide]	–	–	–	–	–
< 8 µg/mL	< 8 µg/mL	209 to 210 °C	NC(=O)c1c(F)ccc(OCc2nc(-c3ccc(O)cc3)no2)c1F [Example 242, 2,6-Difluoro-3-[3-(4-hydroxyphenyl)-1,2,4-oxadiazol-5-yl]methoxybenzenecarboxamide]	–	–	< 8 µg/mL	< 8 µg/mL	–

SMILES	MIC [2]	MIC (Bacillus subtilis 168CA)	melting point	Percent survival (Staphylococcus aureus)	MIC [1, 3]	MIC [1, 4]	MIC [1, 5]	MIC [1, 6]
NC(=O)c1c(F)ccc(OCc2nc(-c3ccc(Cl)cc3)cs2)c1F [Example 106, 3-[4-(4-Chloro-phenyl)-thiazol-2-ylmethoxy]2,6-difluoro-benzamide]	< 8 µg/mL	< 8 µg/mL	–	100%	< 8 µg/mL	< 8 µg/mL	< 8 µg/mL	< 8 µg/mL
COc1ccc(-c2noc(COc3ccc(F)c(C(N)=O)c3F)n2)cc1 [Example 241, 2,6-Difluoro-3-[3-(4-methoxyphenyl)-1,2,4-oxadiazol-5-yl]methoxybenzenecarboxamide]	< 8 µg/mL	< 8 µg/mL	–	100%	–	–	–	–
NC(=O)c1c(F)ccc(OCc2nc(-c3ccc(Cl)cc3)no2)c1F [Example 246, 3-[3-(4-Chlorophenyl)-1,2,4-oxadiazol-5-yl]methoxy-2,6-difluorobenzenecarboxamide]	< 8 µg/mL	< 8 µg/mL	–	100%	< 8 µg/mL	< 8 µg/mL	< 8 µg/mL	< 8 µg/mL
Cc1ccc(-c2noc(COc3ccc(F)c(C(N)=O)c3F)n2)cc1 [Example 247, 2,6-Difluoro-3-[3-(4-methylphenyl)-1,2,4-oxadiazol-5-yl]methoxybenzenecarboxamide]	< 8 µg/mL	< 8 µg/mL	–	100%	–	–	–	–
